According to article PMC10933344, “A lncRNA Dleu2-encoded peptide relieves autoimmunity by facilitating Smad3-mediated Treg induction” (EMBO Reports, 2024):

Assays:
Format in all cases: in vivo, mouse
[1] = tested on: CD4+ T cells in spleen of EAE mice; test: Flow cytometry of spleen T cells of treated EAE mice; conditions: 100 μg i.v.
Protocol: (§1) Figure 5 Dleu2-17aa attenuates EAE by promoting Treg cells. (A) Schematic diagram of MOG-induced EAE and treatment strategies with Dleu2-17aa, scrPEP, and Glatiramer. Mice received 100 μg of Dleu2-17aa or scrPEP every 3 days via i.v. injection or 150 μg of Glatiramer every day for seven times via s.c. on days 9 to 15. (B) Clinical scores were examined daily from day 9 using a scoring system ranging from 0 (no sign) to 5 (complete paralysis or dead). The x-axis represents experimental days, and the y-axis represents symptom severity (n = 8–9). (C) Representative Luxol fast blue (LFB) and hematoxylin and eosin staining (H&E) staining sections for treated EAE spinal cord. Scale bars: 100 μm. (D) Histopathology scores of inflammations and demyelination in treated EAE mice spinal cord using a scoring system ranging from 0 (no inflammatory cells or demyelination) to 4 (extensive inflammatory cells infiltration or confluent foci of demyelination) (n = 5–8). (E) Representative dot plots (left panel) and frequency (right panel) of CD44^hiCD62L^lo activated T cells, Foxp3^+ Treg cells, IL-17A^+ Th17 cells, and IFN-γ^+ Th1 cells gated on CD4^+ T cells in the spleen 14 days post immunization of MOG (n = 3). (F) Representative dot plots and frequency of CD4^+, Foxp3^+ Treg cells, and IFN-γ^+ Th1 cells gated on CD4^+ T cells in the CNS 14 days post immunization of MOG (n = 3). Data information: n indicates biological replicate. Error bars are mean ± SEM; *P < 0.05, **P < 0.01, and ***P < 0.001, n.s. indicates no significant difference. Statistical analysis was by two-way ANOVA for (B) and two-tailed Student’s t-test for (D–F). Source data are available online for this figure. TEXT PRINTED IN THE PICTURE: (E) scrPEP: Spleen: CD62L-PE-DF594 / CD44-PE: 78.2; Spleen: Foxp3-PE / CD4-APC: 7.38; Spleen: IFN-γ-Percp-cy5.5 / Il-17A-FITC: 4.67; Spleen: IFN-γ-Percp-cy5.5 / Il-17A-FITC: 0.18; Spleen: IFN-γ-Percp-cy5.5 / Il-17A-FITC: 94.7; Spleen: IFN-γ-Percp-cy5.5 / Il-17A-FITC: 0.44 | (E) Dleu2-17aa: Spleen: CD62L-PE-DF594 / CD44-PE: 37.2; Spleen: Foxp3-PE / CD4-APC: 12.9; Spleen: IFN-γ-Percp-cy5.5 / Il-17A-FITC: 2.83; Spleen: IFN-γ-Percp-cy5.5 / Il-17A-FITC: 0.26; Spleen: IFN-γ-Percp-cy5.5 / Il-17A-FITC: 96.1; Spleen: IFN-γ-Percp-cy5.5 / Il-17A-FITC: 0.79 | (F) scrPEP: CNS: FSC / CD4-APC: 9.03; CNS: Foxp3-PE / CD4-APC: 8.47; CNS: IFN-γ-Percp-cy5.5 / Il-17A-FITC: 22.9; CNS: IFN-γ-Percp-cy5.5 / Il-17A-FITC: 2.00; CNS: IFN-γ-Percp-cy5.5 / Il-17A-FITC: 69.7; CNS: IFN-γ-Percp-cy5.5 / Il-17A-FITC: 5.44 | (F) Dleu2-17aa: CNS: FSC / CD4-APC: 3.33; CNS: Foxp3-PE / CD4-APC: 15.5; CNS: IFN-γ-Percp-cy5.5 / Il-17A-FITC: 13.9; CNS: IFN-γ-Percp-cy5.5 / Il-17A-FITC: 2.65; CNS: IFN-γ-Percp-cy5.5 / Il-17A-FITC: 77.7; CNS: IFN-γ-Percp-cy5.5 / Il-17A-FITC: 5.79 DOUBTS OF THE COPYIST ABOUT THIS PICTURE: Panels E and F: the gate and quadrant numbers in the dot plots are printed with no measure or unit; the tissue heading and the axis labels of each plot are written in front of them. For the quadrant plots the order is upper left, upper right, lower left, lower right. / Panels E and F: the gate numbers are in small print, so 3, 5, 6, 8 and 9 are best readings: E scrPEP 78.2, 7.38, 4.67, 0.18, 94.7; E Dleu2-17aa 37.2, 12.9, 2.83, 0.26, 96.1, 0.79; F scrPEP 9.03, 8.47, 22.9, 69.7, 5.44; F Dleu2-17aa 3.33, 15.5, 13.9, 2.65, 5.79.
(§2) For active EAE immunization, myelin oligodendrocyte glycoprotein peptide (MOGp35–55, […], GenScript) was emulsified in complete Freund adjuvant (Sigma-Aldrich). An equivalent of 300 μg MOG peptide was injected per mouse subcutaneously followed by 200 ng of pertussis toxin (Merck-Calbiochem) injection intravenously on day 0 and day 2 of immunization. […]

[2] = tested on: CD4+ T cells in CNS of EAE mice; test: Flow cytometry of CNS T cells of treated EAE mice; conditions: 100 μg i.v., replicate 4
[3] = tested on: CD4+ T cells in CNS of EAE mice; test: Flow cytometry of CNS T cells of treated EAE mice; conditions: 100 μg i.v.
Protocol: as §1, §2

Sequence: ARGPARRMRGGRRRRLR [scrPEP, scrambled control peptide of Dleu2-17aa]
- CD62LloCD44+/ CD4+ Cells(%) ([1]; replicate 1): 58.3%
- Foxp3+/ CD4+ Cells (%) ([1]; replicate 1): 7.65%
- IFN-γ+/ CD4+ Cells(%) ([1]; replicate 1): 4.58%
- CD62LloCD44+/ CD4+ Cells(%) ([1]; replicate 2): 60.9%
- Foxp3+/ CD4+ Cells (%) ([1]; replicate 2): 6.51%
- IFN-γ+/ CD4+ Cells(%) ([1]; replicate 2): 4.35%
- CD62LloCD44+/ CD4+ Cells(%) ([1]; replicate 3): 61.3%
- Foxp3+/ CD4+ Cells (%) ([1]; replicate 3): 6.5%
- IFN-γ+/ CD4+ Cells(%) ([1]; replicate 3): 4.11%
- CD62LloCD44+/ CD4+ Cells(%) ([1]; replicate 4): 78.2%
- Foxp3+/ CD4+ Cells (%) ([1]; replicate 4): 6.85%
- IFN-γ+/ CD4+ Cells(%) ([1]; replicate 4): 4.28%
- CD4+ / Live Cells(%) [2]: 10.2%
- Foxp3+/ CD4+ Cells (%) [2]: 10.5%
- IFN-γ+/ CD4+ Cells(%) [2]: 22.6%
- CD4+ / Live Cells(%) ([3]; replicate 1): 9.03%
- Foxp3+/ CD4+ Cells (%) ([3]; replicate 1): 8.94%
- IFN-γ+/ CD4+ Cells(%) ([3]; replicate 1): 22.8%
- CD4+ / Live Cells(%) ([3]; replicate 2): 10.1%
- Foxp3+/ CD4+ Cells (%) ([3]; replicate 2): 9.11%
- IFN-γ+/ CD4+ Cells(%) ([3]; replicate 2): 22.9%
- CD4+ / Live Cells(%) ([3]; replicate 3): 9.74%
- Foxp3+/ CD4+ Cells (%) ([3]; replicate 3): 8.47%
- IFN-γ+/ CD4+ Cells(%) ([3]; replicate 3): 23.8%
